Data as given in patent US12064488B2, “Nitroxide containing amyloid binding agents for imaging and therapeutic uses” (The Regents of the University of California, priority 2015, dated 2024).

How the values were obtained:
[1] = biological target: T1, amyloid (AB) in 5xFAD mouse brain tissue (Homo sapiens, UniProt P05067); assay: EPR spectroscopy of brain slices labeled in vitro; format: binding; conditions: 5xFAD brain tissue treated in vitro
T1 construct: produces elevated amyloid beta levels in the brain; from tissue; host or cells: brain of 5xFAD transgenic mice (400 µm coronal slices)
T1 sequence (P05067 672-713 limits assumed): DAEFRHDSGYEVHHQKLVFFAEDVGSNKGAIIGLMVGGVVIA
Excerpt: Samples were loaded into a quartz cell and examined by electron paramagnetic resonance (EPR) spectroscopy. […] Thus, in agreement with results from the MRI measurements, the lack of EPR signal from the WT+SLF brain section excludes non-specific binding of SLF in these tissue samples. […] The broad EPR spectrum from the +SLF 5xFAD reflects a strongly immobilized spin probe, consistent with high affinity binding to a solidified matrix.

[2] = biological target: T2, amyloid plaque (AB) in 5xFAD mouse brain slices (Homo sapiens, UniProt P05067); assay: T2/T2*-weighted MRI of coronal brain slices labeled in vitro with spin-labeled compound; conditions: 5xFAD brain slices/specimens incubated in vitro with compound
T2 construct: produces elevated amyloid beta levels in the brain; from tissue; host or cells: brain of 5xFAD transgenic mice (400 µm coronal slices)
T2 sequence (P05067 672-713 limits assumed): as above
Protocol: MR images of coronal brain slices (400 μm thick) were obtained from a transgenic AD mouse model (5xFAD) with and without exposure to HO-4160 nitroxide spin-labeled […] (SLF), where the SLF-negative sample was treated with DMSO vehicle equal to the SLF-exposed sample. Following the labeling period with either SLF or the DMSO vehicle control, the brain slices were imbedded into agarose and imaged by MRI. Measurements were made in three separate experiments, using slices from unique AD and wild type (WT) mice in each experiment.
5xFAD brain slices treated with SLF decrease in intensity to a mean value of 1.6±0.1×10^5, compared to the T2-weighted images of the untreated samples, with a mean value of 2.6±0.1×10^5. Evaluation of the two sets by the unpaired t-test supports a significant difference among these groups (p<0.01). With respect to T2*, there also is a significant (p<0.02) intensity difference between the two groups of 5xFAD specimens, with a mean intensity of 1.4±0.2×10^5 for the SLF-treated samples, and a mean intensity of 2.3±0.1×10^5 for the untreated samples. In addition, T2 and T2*-weighted imaging of corresponding slices from WT mice show no difference between the SLF-treated and SLF-negative (not shown) specimens.
Both T2 and T2* signal suppression was calculated in each of the three experiments. The average suppression values were calculated according to the equation: SS %=[(SIref−SI)/SIref]*100 where SI is the average signal intensity of the 5xFAD SLF+ section and SIref is the average signal intensity of the 5xFAD SLF− or WT SLF+ section. Calculation results are plotted in FIG. 7, where both the gray and white bars represent the suppression of MRI intensity found in the 5xFAD specimen following SLF treatment. The gray bars show signal suppression relative to the untreated 5xFAD brain, while the white bars compare the suppression relative to the SLF-treated specimens from WT mice. Relative to both controls, SLF generates ˜40% signal suppression for samples carrying a high amyloid-beta load. In the absence of SLF, the average intensity of the 5xFAD brain sections have a slightly lower T2/T2* MRI intensity than specimens from WT mice. This can be attributed to iron bound to deposits of AB, which has been previously observed in the MRI analyses of AD model mice (Vanhoutte et al. (2005); Jack et al. (2007); and Wadghiri et al. (2012)). Thus, the relative suppression is slightly higher when comparing the +SLF AD sample to the +SLF WT sample.

[3] = system: MC65 neuroblastoma cell; assay: MC65 assay: protection against AB toxicity (MTT cell viability); format: cell-based, human; conditions: MC65 cells, TC removal, 3 days
Excerpt: The ability of agents to protect against AB toxicity can be measured according to their effect on the survivability of MC65 neuroblastoma cell (Maezawa et al. (2008) J. Neurochem. 104:457). In the MC65 model system, expression of the C-terminal region (C99) of the amyloid precursor protein (APP) is turned on in the absence of the transgene suppressor, tetracycline (TC). Upon APP-C99 induction (TC-), AB is generated after proteolysis by cellular γ-secretase […]. In the absence of protection, death of MC65 neuroblastoma cells results due to the intracellular accumulation of oligomeric AB (ABO). […] In Table 2 below, we report the ability of the SL-LRL1, SL-LRL2, SL-Res1, SL-Res2, and SL-Res3 compounds to protect against AB toxicity in the MC65 assay.
The cell culture model used for these studies was the human neuroblastoma cell line (MC65) equipped with conditional expression of the carboxyl-terminal 99 residues of the amyloid-beta precursor protein (APP-C99). AB is generated from APP-C99 after proteolysis by cellular γ-secretase. To induce cellular AB production, the transgene suppressor, tetracycline (TC), was removed from the media, as described previously (Maezawa et al. (2008)). Intracellular ABO starts to accumulate as early as 4 hours after TC removal. The compounds were added immediately after TC removal, and the cells were maintained for 3 days without media change before measuring cell viability. The cytotoxicity was determined on day 3 using a colorimetric MTT [3-(4,5-dimethylthiazol-2yl)-2,5-diphenyltetrazolium bromide] cell viability assay.

Cc1c(C(N)=O)c(=O)oc2cc3c(cc12)nc(NCCNC(=O)C1CC(C)(C)N([O])C1(C)C)n3Cc1cccc(I)c1 (centres unmarked) [SL-LRL1, 3-(3-iodobenzyl)-8-methyl-6-oxo-2-((2-(2,2,5,5-tetramethyl-1-oxylpyrrolidine-3-carboxamido)ethyl)amino)-3,6-dihydrochromeno[6,7-d]imidazole-7-carboxamide Radical]
EPR signal / binding to brain tissue [1]: confirming the binding
contrast in T2*-weighted imaging [2]: strong negative contrast
EC50 [3]: 4500 nM

Cc1c(C(N)=O)c(=O)oc2cc3c(cc12)nc(NCC1=CC(C)(C)N([O])C1(C)C)n3Cc1cccc(I)c1 [SL-LRL2, 3-(3-iodobenzyl)-8-methyl-6-oxo-2-(((2,2,5,5-tetramethyl-1-oxyl-2,5-dihydro-1H-pyrrol-3-yl)methyl)amino)-3,6-dihydrochromeno[6,7-d]imidazole-7-carboxamide Radical]
contrast in T2*-weighted imaging [2]: ability to generate negative contrast
EC50 [3]: 3500 nM

CC1(C)C=C(COc2cc(O)cc(/C=C/c3ccc(O)cc3)c2)C(C)(C)N1[O] [SL-Res1]
contrast in T2*-weighted imaging [2]: ability to generate negative contrast
EC50 [3]: 450 nM

CC1(C)CC(NC(=O)COc2cc(O)cc(/C=C/c3ccc(O)cc3)c2)C(C)(C)N1[O] (centres unmarked) [SL-Res2, (E)-2-(3-hydroxy-5-(4-hydroxystyryl)phenoxy)-N-(2,2,5,5-tetramethyl-1-oxylpyrrolidin-3-yl)acetamide Radical]
contrast in T2*-weighted imaging [2]: ability to generate negative contrast
EC50 [3]: 680 nM

CC1(C)C=C(C(=O)Oc2ccc(/C=C/c3cc(O)cc(O)c3)cc2)C(C)(C)N1[O] [SL-Res3, (E)-4-(3,5-dihydroxystyryl)phenyl 2,2,5,5-tetramethyl-1-oxyl-2,5-dihydro-1H-pyrrole-3-carboxylate Radical]
contrast in T2*-weighted imaging [2]: ability to generate negative contrast
EC50 [3]: 410 nM
